Results taken from patent US6087375A, “Methods of treating or preventing thromboses” (priority 1999, dated 2000).

How the values were obtained:
Type in all cases: binding
[1] = tested on: rabbit erythrocyte membrane and cytosolic proteins; assay: Immunoblotting and ELISA of rabbit erythrocyte ghost and cytosol fractions after conjugation
Protocol: Material and Methods: Rabbit erythrocytes were conjugated with the Argatroban-C6 NHS ester compound (compound YL-015-35). To do so, rabbit erythrocytes were isolated from fresh, citrated blood. In brief, an aliquot of blood was centrifuged for 5 minutes at 1800 rpm (Sorvall RC-5B, SH-3000 rotor). The buffy coat was pipetted off the top layer of the cell pellet and the remaining erythrocytes were washed four times with PBS, pH 7.4. Before the last wash, an aliquot of cells was removed for counting. The washed erythrocytes were resuspended at a density of 1×10^9 cells/mL. The total volume of cells labeled per sample was 3 mL. […] After the labeling reaction, the cells were centrifuged 4 minutes at 1800 rpm and the supernatant was discarded. The cells were resuspended in 10 ml of 0.5% DMSO/PBS and pelleted. The cells were washed one more time with 10 ml of PBS.
To quench any remaining reactive esters, the cells were then resuspended in 6 mg/mL BSA/PBS (Sigma, A-2934, lot 93HO291) and gently agitated at room temperature for 30 minutes. After quenching, the cells were washed five times with PBS. Cell yields were determined by cell counting.
After conjugation, the cells were hypotonically lysed and the ensuing membrane (ghost) and cytosol fractions were assayed by immunoblotting and ELISA. Specifically, conjugated erythrocyte pellets were chilled on ice for 5 minutes. Cells were then lysed on ice with 12 ml of ice-cold 5 mM phosphate buffer, pH 8.0 (PB) containing 1 mM Pefabloc and 40 μM leupeptin. Lysates were briefly vortexed and then centrifuged for 20 minutes at 4° C. at 15,000 rpm (SS-34, Sorvall RC-5B). The supernatant (hemolysate) was pipetted off the pellet, labeled and stored at 4° C. The pellets (ghosts) were washed four times with 12 ml of cold PBS and centrifuged as above. The protein content of the ghosts and hemolysates was determined by using the Micro BCA kit (Pierce; catalog no. 23231). Cell fractions were stored at -80° C.
Samples were then solubilized in 2×reducing cocktail (5% SDS, 50% glycerol, 0.5 M 2-mercaptoethanol in 0.25 M Tris-HCI, pH 6.8). […]

[2] = target: human serum albumin (HSA) (Homo sapiens, UniProt P02768); assay: Mass spectrometric analysis of conjugation to HSA (HPLC/ESIMS); conditions: HSA 5 μM, 1 hour, room temperature
Sequence of human serum albumin (HSA) (P02768 25-609): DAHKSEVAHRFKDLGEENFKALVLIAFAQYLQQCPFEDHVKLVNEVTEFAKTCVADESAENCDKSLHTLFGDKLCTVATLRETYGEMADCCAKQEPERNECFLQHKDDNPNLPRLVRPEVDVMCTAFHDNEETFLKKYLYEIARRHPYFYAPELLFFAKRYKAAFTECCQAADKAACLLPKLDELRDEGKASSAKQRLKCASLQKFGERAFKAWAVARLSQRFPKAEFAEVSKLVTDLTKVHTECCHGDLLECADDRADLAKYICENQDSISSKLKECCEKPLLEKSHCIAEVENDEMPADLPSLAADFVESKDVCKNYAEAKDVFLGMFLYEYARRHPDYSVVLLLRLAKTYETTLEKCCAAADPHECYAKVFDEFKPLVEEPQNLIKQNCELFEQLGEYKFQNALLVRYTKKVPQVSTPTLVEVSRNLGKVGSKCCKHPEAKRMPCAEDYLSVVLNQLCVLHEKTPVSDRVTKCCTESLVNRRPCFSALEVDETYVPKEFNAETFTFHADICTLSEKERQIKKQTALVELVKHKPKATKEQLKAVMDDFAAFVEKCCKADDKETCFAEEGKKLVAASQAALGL
Protocol: (§1) All samples were analyzed using a high performance liquid chromatograph (HPLC) coupled in-line to an electrospray ionization (ESI) mass spectrometer (MS) which is termed HPLC/ESIMS. Some samples were also analyzed using a matrix-assisted laser desorption ionization (MALDI) time-of-flight (TOF) mass spectrometer which is termed (MALDI-TOFMS).
(§2) Samples for HPLC/ESIMS were either prepared as duplicate reaction samples or were part of the same reaction samples which were used in the ELISA assays described below. These samples were injected directly only the HPLC/ESIMS without any manipulation other than dilution with water, where the PBS, DMSO, and unreacted derivative molecules are separated from the protein-argatroban derivative molecule conjugate. Samples for MALDI-MS were first HPLC-purified and mixed 1:1 directly on the stainless steel analysis plate with a matrix of 10 mg/ml sinnapinic acid in 50% acetonitrile/50% water. The mixture was then dried with a gentle flow of air to allow for crystallization and inserted into the instrument for laser ionization.
(§3) The HPLC is a Hewlett Packard 1090 Series II liquid chromatogram with a diode array detector. The column used for separation is a Brownlee aquapore OD-300 reversed phase C18 column, 1 mm×10 cm, 300 Å pore size, 7 μm particle diameter. The mass spectrometer to which the HPLC is connected using fused Silica capillary tubing is a Sciex API-300 triple quadrupole mass spectrometer with an ionspray source to allow for atmospheric pressure ionization of a liquid flowing continuously into the instrument. The MALDI-TOFMS is a Perceptive Biosystems Voyager Elite DE instrument run in the linear mode.

[3] = target: rabbit serum albumin (RSA) (Oryctolagus cuniculus, UniProt P49065); assay: Mass spectrometric analysis of conjugation to RSA (HPLC/ESIMS, MALDI-TOFMS); conditions: for average argatroban derivative molecules added per RSA molecule / range of argatroban derivative molecules added per RSA molecule: MALDI-MS
Sequence of rabbit serum albumin (RSA) (P49065 25-608): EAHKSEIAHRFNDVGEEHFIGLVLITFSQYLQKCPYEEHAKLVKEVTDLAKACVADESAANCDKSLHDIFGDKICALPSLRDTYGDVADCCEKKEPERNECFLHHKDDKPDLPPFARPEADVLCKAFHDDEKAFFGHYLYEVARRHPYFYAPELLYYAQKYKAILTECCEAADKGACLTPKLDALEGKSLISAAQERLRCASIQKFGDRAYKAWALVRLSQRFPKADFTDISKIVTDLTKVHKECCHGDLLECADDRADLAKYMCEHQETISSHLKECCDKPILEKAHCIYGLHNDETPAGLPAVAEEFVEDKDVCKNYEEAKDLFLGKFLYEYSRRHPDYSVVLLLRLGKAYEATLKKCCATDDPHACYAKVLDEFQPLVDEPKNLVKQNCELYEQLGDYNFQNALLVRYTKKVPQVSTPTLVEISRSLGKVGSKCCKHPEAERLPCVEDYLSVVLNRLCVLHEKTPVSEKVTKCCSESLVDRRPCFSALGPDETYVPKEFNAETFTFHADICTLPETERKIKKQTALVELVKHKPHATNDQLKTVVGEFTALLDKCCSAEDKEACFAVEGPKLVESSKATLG
Protocol: as §1, §2, §3
The conjugate was prepared according to the following protocol. […] Sham samples consist of the RSA incubated for the same length of time at RT in 2% DMSO in PBS. Each of the samples was then concentrated to a final volume of 1.5 mL using Amicon Centricon 30 filtration/concentration devices. The concentrated samples were then desalted on Pierce's 5 ML Kwiksep excellulose plastic desalting columns. The excluded volumes containing RSA or argatroban-C6-RSA were then subjected to BCA microprotein estimation and lyophilization. In addition, these samples were analyzed by LC/MS, sandwich ELISA assays (described above) to measure thrombin binding and immunoblotting.

[4] = HPLC/ESIMS, RSA 4.5 μM, 100 μM ester, 1 hour, room temperature
[5] = concentration study, 10 μM ester, RSA 4.5 μM, HPLC/ESIMS

In the case of CC1CNc2c(cccc2S(=O)(=O)NC(CCCN=C(N)N)C(=O)N2CCC(C)CC2C(=O)NCCCCCC(=O)ON2C(=O)CCC2=O)C1 (centres unmarked) [compound YL-015-35], the “labeled proteins belonging to the glycophorin family” value ([1]; capture ELISA assay) is reported as “a portion of the thrombin inhibitor-labeled proteins belong to the glycophorin family of proteins”, the “presence of derivatized argatroban molecules on cytosolic proteins” value ([1]; rabbit erythrocytes, cytosol fraction) is reported as “at the limit of detection” and the “covalent modification of erythrocyte membrane proteins” value ([1]; rabbit erythrocytes, immunoblotting) is reported as “numerous erythrocyte membrane proteins were covalently modified”. The “covalent addition of argatroban derivative molecules per HSA molecule” value (from here on “covalent addition … per HSA molecule”) ([2]; 100 μM ester) was 1-8 argatroban derivative molecules per HSA molecule, the “covalent addition of argatroban derivative molecules per RSA molecule” value (shortened to “covalent addition … per RSA molecule”) [3, 4] was 1-8 argatroban derivative molecules per RSA molecule and the “covalent addition … per RSA molecule” value ([3]; HPLC/ESIMS, RSA 15 μM, 200 μM ester) was 1-9 argatroban derivative molecules per RSA molecule. The “covalent addition … per RSA molecule” value ([3]; HPLC/ESIMS, RSA 30 μM, 300 μM ester) was 1-9 argatroban derivative molecules per RSA molecule, the “average argatroban derivative molecules added per RSA molecule” value ([3]; RSA 15 μM, 200 μM ester) was 5.6 argatroban derivative molecules added per RSA molecule and the “range of argatroban derivative molecules added per RSA molecule” value ([3]; RSA 15 μM, 200 μM ester) was 1-10 argatroban derivative molecules added per RSA molecule. For the same compound, the “average argatroban derivative molecules added per RSA molecule” value ([3]; RSA 30 μM, 300 μM ester) was 5.4 argatroban derivative molecules added per RSA molecule, the “range of argatroban derivative molecules added per RSA molecule” value ([3]; RSA 30 μM, 300 μM ester) was 1-10 argatroban derivative molecules added per RSA molecule and the “argatroban derivative molecules added” value ([3]; concentration study, 1 μM ester, RSA 4.5 μM, HPLC/ESIMS) was “no detectable argatroban derivative molecules”. The “argatroban derivative molecules added” value [3, 5] was 1 argatroban derivative molecule, the “fraction of the RSA molecules to which 1 argatroban derivative molecule is added” value [3, 5] was ~ 50% and the “major species of RSA molecules” value ([3]; concentration study, 15 μM ester, RSA 4.5 μM) was “majority of RSA molecules are +1”. The “argatroban derivative molecules added per RSA molecule” value ([3]; concentration study, 15 μM ester, RSA 4.5 μM, HPLC/ESIMS) was 0-3 argatroban derivative molecules per RSA molecule, the “major species of RSA molecules” value ([3]; concentration study, 20 μM ester, RSA 4.5 μM) was “majority of RSA molecules are +1 and +2” and the “argatroban derivative molecules added per RSA molecule” value ([3]; concentration study, 20 μM ester, RSA 4.5 μM, HPLC/ESIMS) was 1-3 argatroban derivative molecules per RSA molecule. The “major species of RSA molecules” value ([3]; concentration study, 25 μM ester, RSA 4.5 μM) was “majority of RSA molecules are +1 and +2”, the “argatroban derivative molecules added per RSA molecule” value ([3]; concentration study, 25 μM ester, RSA 4.5 μM, HPLC/ESIMS) was 1-4 argatroban derivative molecules per RSA molecule and the “major species of RSA molecules” value ([3]; concentration study, 100 μM ester, RSA 4.5 μM) was “no major species”. The “argatroban derivative molecules added per RSA molecule” value ([3]; concentration study, 100 μM ester, RSA 4.5 μM, HPLC/ESIMS) was 2-10 argatroban derivative molecules per RSA molecule.
For CC1CNc2c(cccc2S(=O)(=O)NC(CCCNC(=N)N)C(=O)N2CCC(C)CC2C(=O)NCCCCCCCCCCCC(=O)ON2C(=O)CCC2=O)C1 (centres unmarked) [compound YL-015-11], the “covalent addition … per HSA molecule” value ([2]; 0.5 μM ester) was 0-4 argatroban derivative molecules per HSA molecule, the “covalent addition … per HSA molecule” value ([2]; 100 μM ester) was 1-5 argatroban derivative molecules per HSA molecule and the “covalent addition … per RSA molecule” value ([3]; HPLC/ESIMS, RSA 4.5 μM, 0.5 μM ester, 1 hour, room temperature) was 0-3 argatroban derivative molecules per RSA molecule. The “covalent addition … per RSA molecule” value [3, 4] was 1-5 argatroban derivative molecules per RSA molecule.
